Experimental findings from article PMC9666555, “Genuine selective caspase-2 inhibition with new irreversible small peptidomimetics” (Cell Death & Disease, 2022) are described below.

The target of one series is Cathepsin-D (Homo sapiens, UniProt P07339). Nature of the series: Non-caspase enzyme assay, Cathepsin-D. In kind it is biochemical. As to conditions: concentrations up to 10 µM. Here is the method:
(§1) Stock solutions were stored at −80 °C. […]
(§2) Non-caspase enzyme assays
(§3) The human pro- kallikrein-1 (pro-hK1) was activated in a buffer containing: Tris-HCl 50 mM, CaCl2 10 mM, NaCl 150 mM, Brij-35 0,05% pH 7,5. Human pro-kallikrein-6 and -8 (pro-hK6 and 8 were activated using Lysyl-endopeptidase (Wako- BioProducts®) at a 1/500 weight ratio, in a buffer containing 50 mM Tris and 0,05% Brij-35 (pH 8). Kinetics using non-caspase enzymes for selectivity studies were done according to the following conditions.
(§4) Enzymes Substrates Buffers
(§5) Cathepsine B (0.2 nM) z-RR-AMC 20 µM Acétate de sodium 0,1 M; EDTA 1mM ; […]
(§6) Cathepsine L (1.2 nM) RLR-AMC 25 µM Acétate de sodium 0,1 M; EDTA 1mM ; […]
(§7) Cathepsine D (0.1 nM) Mca-Gly-Ly s-Pro-Ile-Leu-Phe-Phe- Citrate de Sodium 0,1 M; EDTA 2 mM ; Arg-Leu-Lys(Dnp)-D-Arg-NH2 10 µM Brij-35 0,01%; pH 4 hK1 (4 nM) Boc-VPR-AMC 100µM Tris 50mM; Citrate 1M; Brij-35 0.05%; pH7 hK6 (2 nM ) Boc-QAR -AMC 100 µM Tris 50mM; Citrate 1M; Brij-35 0.05%; pH7 hK8 (1 nM) Boc-VPR-AMC 100µM Tris 50mM; Citrate 1M; Brij-35 0.05%; pH7
(§8) Thrombine (10 mU/mL) Boc-VPR-AMC 100µM Tris 50mM; Citrate 1M; Brij-35 0.05%; pH7 Plasmine (4 nM ) Boc-QAR -AMC 100µM Tris 50mM; Citrate 1M; Brij-35 0.05%; pH7 Trypsine (0.1 nM) Boc-QAR -AMC 100µM Tris 50mM; Citrate 1M; Brij-35 0.05%; pH7

Another series relates to Trypsin. Nature of the series: Non-caspase enzyme assay, Trypsin. The note with it: concentrations up to 10 µM. It is filed as biochemical, human. On the procedure:
as §1, §2, §3, §4, §5, §6, §7, §8

In the next series the target is T1, Kallikrein-6 (Homo sapiens, UniProt Q92876).
T1 construct: purchased R&D Systems 5164-SE-010
Nature of the series: Non-caspase enzyme assay, Kallikrein-6. As to conditions: concentrations up to 10 µM. In kind it is biochemical. Here is the method:
as §1, §2, §3, §4, §5, §6, §7, §8

For the next series, the target named is T2, Thrombin (Homo sapiens, UniProt P00734).
T2 construct: The human active Plasmin, Thrombin, and Trypsin; purchased Sigma-Aldrich
Nature of the series: Non-caspase enzyme assay, Thrombin. In kind it is biochemical. As to conditions: concentrations up to 10 µM. Here is the method:
as §1, §2, §3, §4, §5, §6, §7, §8

Another series relates to HeLa cells. Nature of the series: Vincristine-induced HeLa cell death (propidium iodide, flow cytometry). In kind it is cell-based, human. The note with it: indicated doses, 1 h pretreatment, 20 nM vincristine 44 h. Here is the method:
HeLa cells (obtained from ATCC) were cultured in Dulbecco’s Modified Eagle Medium (DMEM, High Glucose, GlutaMAX™, Pyruvate) supplemented with antibiotics and 10% fetal calf serum (FCS) (Gibco, Life Technologies) and maintained in T75 Flasks at 1 × 10^6 cells per flask. Twenty-four hours before treatments, HeLa cells were transferred to 6-well plates (8 × 10^4 cells/well). The lymphoblastoid cell line Molt4cl8 was a gift from Dr. Bernard Krust (Inserm, University Paris 5) and was cultured in RPMI 1640 Glutamax medium supplemented with Hepes, antibiotics, and 10% FCS. HEK293 cells were obtained from ATCC (CRL-1573) and cultured in DMEM with Glutamax and 25 mM glucose (Life Technologies) supplemented with 10% FCS and antibiotics. For cell death induction, the following agents were added to cell cultures: Vincristine (Sigma) and Panobistat (LBH589; Selleck). Cell death was analyzed using fluorescence microscopy (Axio-observer Z1, Zeiss; equipped with CCD camera CoolsnapHQ2, Ropert Scientific) and cytofluorometry (MACSQuant® VYB; Miltenyi Biotec, Bergisch Gladbach, Germany) after labeling with propidium iodide (1 µg/mL; 10 min; 37 °C; Life Technologies) and Hoechst 33342 (1 µg/mL; 5 min; RT; Sigma).
Fig. 2 q33 and h33 are protective against the cytocidal effect of Vincristine. a Vincristine induces HeLa cell death. Cells were incubated for 44 h at 37 °C with 20 nM Vincristine (VCR), then incubated with propidium iodide at 2 μg/mL for 10 min and analyzed by flow cytometry to quantify plasma membrane permeabilization. Histograms show fluorescence intensity detected by flow cytometry (one representative experiment) in the presence (VCR) or Absence (Co.) of Vincristine. % of propidium iodide-positive cells are indicated for both conditions. b Dose–response of Vincristine-induced cell death. HeLa cells were incubated and treated as in (a) with the indicated doses of Vincristine (VCR) and analyzed by flow cytometry. […] Representative fluorescence microscopy micrographs of cells treated for 44 h with 20 nM vincristine (VCR) or not (Co.) and stained with Hoechst 33342. Vincristine induces progressive nuclear changes with first condensed nuclei (arrows) and then apoptotic bodies (dashed arrow). d Broad-spectrum irreversible caspase inhibitors prevent vincristine-induced cell death. HeLa cells were pretreated for 1 hr with the indicated broad-spectrum irreversible caspases inhibitors (z-VAD(OMe)-fmk at 30 μM, Q-VD-OPh 30 μM, Emricasan 10 μM, or the negative control Q-VE-OPh 30 μM), then treated with vincristine as in panel (a), and analyzed by flow cytometry. Histograms show the mean ± SD of 3 independent experiments (***p value < 0.001). e Effect of the reversible Caspase-2 inhibitors q33 and h33 against vincristine-induced cell death. HeLa cells were pretreated for 1 h with the indicated doses of q33 or h33, then treated with vincristine as in panel a, and analyzed by flow cytometry. Histograms show the mean ± SD of three independent experiments (*p value < 0.1). TEXT PRINTED IN THE PICTURE: (a) VCR: 39,5 % DOUBTS OF THE COPYIST ABOUT THIS PICTURE: Panel a: the picture prints no measure beside "39,5 %" and "4.1%". I assigned 39,5 % to VCR only because it stands by the grey VCR peak. / Panel a: "4.1%" seems to belong to the untreated control (Co.). That is not a substance, so it is left out.
Fig. 5 LJ2 inhibits cell death induced by microtubule destabilization and hydroxamic acid-based deacetylase (HDAC) inhibition. a Effect of the irreversible Caspase-2 inhibitors LJ2 against vincristine-induced cell death. HeLa cells were pretreated for 1 h with the indicated doses of LJ2, Q-VD-OPh, or Q-LETD-OPh, then treated with vincristine (VCR) as in Fig. 2, then incubated with propidium iodide at 2 μg/mL for 10 min and analyzed by flow cytometry. Histogram data are mean ± SD (n = 3, *p value < 0.01). b Effect of Caspases-inhibitors against Panobistat (LBH589)-induced cell death. […]
A general note: In flow cytometry, cells or beads pass a laser one at a time.

Series [1] concerns cell lines or primary neurons in culture. Nature of the series: Toxicity of inhibitor added to cultured cells. It is filed as cell-based. As to conditions: at least up to 100 µM; not shown.

Each structure is given as a SMILES string. Non-standard residues stand in square brackets, D forms with d. Residues, ends and D or L forms follow the SMILES beside them. ξ: configuration not given here. *: point of attachment. ξTHIQ1CO(6-Me) = Cc1ccc2c(c1)CCNC2C(=O)O; X1 = O=C(O)CC(N*)C(=O)COc1c(F)cccc1F; Quinaldoyl = O=C(c1ccc2ccccc2n1)*

Cathepsin-D, sequence (P07339 65-412): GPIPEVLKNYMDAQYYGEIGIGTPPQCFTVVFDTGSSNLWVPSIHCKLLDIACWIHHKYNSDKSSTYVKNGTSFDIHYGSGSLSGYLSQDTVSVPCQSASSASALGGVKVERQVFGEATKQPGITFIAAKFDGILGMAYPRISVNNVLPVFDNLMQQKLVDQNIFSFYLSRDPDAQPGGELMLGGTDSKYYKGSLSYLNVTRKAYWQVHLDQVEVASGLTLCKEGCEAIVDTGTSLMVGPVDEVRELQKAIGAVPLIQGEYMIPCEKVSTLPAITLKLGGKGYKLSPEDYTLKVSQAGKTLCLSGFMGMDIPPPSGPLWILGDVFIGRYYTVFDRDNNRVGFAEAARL

Turning to `CC(C)[C@H](NC(=O)c1ccc2ccccc2n1)C(=O)N[C@@H](CC(=O)O)C(=O)N[C@H](C(=O)N1CC[C@H](CC(C)(C)C)[C@@H]1C(=O)NC(CC(=O)O)C(=O)COc1c(F)cccc1F)C(C)C` (stereo partly drawn) [LJ3a], the “effect on Cathepsin-D” value at Cathepsin-D was “very limited or no effect”. Further, in the series on Trypsin, the “effect on Trypsin” value is recorded as “very limited or no effect”. For the same compound, at Kallikrein-6, the “effect on Kallikrein-6” value is given as “very limited or no effect”. Further, the “effect on Thrombin” value at Thrombin was “very limited or no effect”.

As for `Cc1ccc2c(c1)CCN(C(=O)[C@@H](NC(=O)[C@H](CC(=O)O)NC(=O)[C@@H](NC(=O)c1ccc3ccccc3n1)C(C)C)C(C)C)C2C(=O)NC(CC(=O)O)C(=O)COc1c(F)cccc1F` (stereo partly drawn) [LJ2, Quinolin-2-carbonyl-VDV-(methyl-isoquinolyl)-D-CH2-O(2,6F2)Ph] (Quinaldoyl-VDV[ξTHIQ1CO(6-Me)]-X1), the “effect against vincristine-induced cell death” value in the series with HeLa cells is “significantly prevented Vincristin-induced cell death in a dose-dependent manner”. In addition, in series [1], the toxicity entry is given as “devoid of any toxicity”.
